Measurements: US9468593B2, “Oral composition” (KABUSHIKI KAISHA SANGI, priority 2012, dated 2016)

Assay: Test for liquid permeation through dentinal tubules (Pashley's protocol, split chamber device)
Set-up: species or system human
Conditions: component blended singly
Procedure: A healthy human evulsion tooth was used to cut the tooth into sections in such a manner that dentin and dentinal tubules were exposed. The resulting sections were polished at a thickness of about 500 μm and were subjected to ultrasonic cleaning. […] The resulting solution was used as a test solution. Then, the sections whose portions other than the test surface had been masked were soaked in the test solution at 37° C. for 9 min per day. This soaking treatment was conducted for 5 days.
In addition, a test for liquid permeation through dentinal tubules was conducted. […] A dentin section was interposed between an inlet chamber and an outlet chamber of the above device. Then, the test solution was placed in the inlet chamber to treat the dentin surface. In addition, a Ringer's solution was injected using pressure in the inlet chamber before and after the treatment. By measuring the amount of flow through the outlet chamber, the liquid permeation through dentinal tubules was evaluated.
The effect of inhibiting liquid permeation through dentinal tubules of each test solution was determined as follows: first, a difference between the amount of flow of the Ringer's solution before and that after the treatment was determined; and a liquid permeation inhibition rate of the dentinal tubules was then calculated in percent units by using the following equation. […]

O.O.O=P([O-])([O-])O.[Ca+2] [calcium monohydrogen phosphate dihydrate]
ability to occlude dentinal tubules of a tooth: had an ability to occlude dentinal tubules of a tooth
